In patent publication US20240287138A1, “CYCLIC PEPTIDES FOR INHIBITING TNF RECEPTOR 1 ACTIVITY” (Merck Sharp & Dohme LLC, priority 2023, published 2024):
Where two headings read alike, the source gives them in different places. Numbered stars: 1 amine (or outer) side, 2 acyl side, 3 side chain; on linkers, the order of the positions; unused ones are H or OH. Bridge positions count the residues as written; N and C are the ends. Square brackets hold non-standard residues; d marks the D form. Peptide text beside a SMILES is read from it. * marks the point of attachment. Trp(βS-Me,7-OMe) = COc1cccc2c([C@H](C)[C@H](N)C(=O)O)c[nH]c12; Ala(1-bicyclo(1.1.1)pentyl) = N[C@@H](CC12CC(C1)C2)C(=O)O; Trp(7-Cl) = N[C@@H](Cc1c[nH]c2c(Cl)cccc12)C(=O)O; Phe(4-CONH2) = NC(=O)c1ccc(C[C@H](N)C(=O)O)cc1; Phe(4-COOH) = N[C@@H](Cc1ccc(C(=O)O)cc1)C(=O)O; Trp(7-aza) = N[C@@H](Cc1c[nH]c2ncccc12)C(=O)O; Pip(5R-OH) = O=C(O)[C@@H]1CC[C@@H](O)CN1; X1 = O=C([C@@H]1CC[C@H](N[*:1])C1)[*:2]; Pip(4-aza) = O=C(O)[C@@H]1CNCCN1; hArg = N=C(N)NCCCC[C@H](N)C(=O)O; 4Pal = N[C@@H](Cc1ccncc1)C(=O)O; NMeE = CN[C@@H](CCC(=O)O)C(=O)O; dHyp = O=C(O)[C@H]1C[C@H](O)CN1; αMeS = C[C@](N)(CO)C(=O)O; Carboxymethyl = O=C(O)C*; Nle = CCCC[C@H](N)C(=O)O; Sar = CNCC(=O)O

Key:
[1] = biological target: T1, human TNFR1 extracellular domain (ECD) protein (Homo sapiens, UniProt P19438); experiment: SPR binding affinity to captured human TNFR1 ECD
T1 construct: HRV 3C protease cleavage site (C); 6His (C, cleaved yes); made in house; host or cells: Sf21 insect cells (baculovirus), secreted
T1 sequence (P19438 30-211): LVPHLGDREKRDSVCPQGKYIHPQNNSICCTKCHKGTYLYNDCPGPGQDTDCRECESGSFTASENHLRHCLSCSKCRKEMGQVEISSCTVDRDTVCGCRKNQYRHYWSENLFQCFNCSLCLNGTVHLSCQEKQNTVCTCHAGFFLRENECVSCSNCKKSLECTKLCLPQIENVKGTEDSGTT
Method: (§1) B. Procedure for Binding Affinity and Selectivity measured by SPR
(§2) Affinity and selectivity for hTNFR1 and TNFR2 was determined using SPR. Human TNFR1 or TNFR2 genes (extracellular domain only) were synthesized with a C-terminal Avi-tag, HRV 3C protease cleavage site followed by a 6His-tag for affinity purification. The final gene product was cloned into pBAC™-1 vector (Millipore Sigma) for expression testing in insect cells. Constructs were transfected into Sf21 cells for baculovirus generation followed by protein expression analysis in Sf21 and Tni cell lines. Large scale expression in Sf21 cells was performed using baculovirus infected insect cells (BIICs) infected at a MOI=2.0 grown for 72 h. Target proteins secreted into the media were harvested via centrifugation and concentrated using diafiltration. TNFR was purified by immobilized metal ion affinity chromatography (IMAC) using a Ni-Sepharose HisTrap™ column (Cytiva™). Isolated TNFR had His tag removed using HRV 3C protease followed by additional purification using Ni-NTA chromatography. Biotinylation was performed on Ni-NTA flow-through fractions concentrated to 45 μM and treated with BirA ligase (1:100, μg/μg ratio) in 50 mM Tris pH 7.5, 150 mM NaCl, 50 μM biotin, 10 mM magnesium acetate, 10 mM ATP at 4° C. for 20 h. Final purification of biotin-TNFR and buffer exchange into 20 mM HEPES pH 7.5, 150 mM NaCl was performed using a HiLoad® Superdex® 200 26/60 column (Cytiva™). Highly purified protein was aliquoted and stored at −80° C.
(§3) The SPR assay uses a Cytiva™ 8K or 8K+ biosensor instrument to measure the kinetics of peptide analytes binding to captured human TNFR1 extracellular domain (ECD) protein; peptide analytes are also evaluated for any off-target binding to human TNFR2 ECD protein in parallel. Recombinant human TNFR1 ECD and human TNFR2 ECD proteins, biotinylated via engineered C-terminal avi-tags, are immobilized to a regenerable streptavidin biosensor chip surface (Cytiva™ Biotin CAPture kit, Series S; cat. #28920234). Peptide analytes binding to immobilized human TNFR1 ECD protein and their subsequent dissociation are conducted in a buffer of 10 mM HEPES pH 7.4, 150 mM NaCl, 3 mM EDTA, 0.05% P20,2% DMSO under laminar flow conditions and measured in response units (RU), which are directly proportional to the accumulated mass on the surface of the biosensor chip; the biosensor chip surface is regenerated via Cytiva™ proprietary methods between the evaluation of each peptide analyte. […] The SPR assay determines the association and dissociation rate constants, kon and koff, for each peptide analyte and, from these values, calculates the binding affinity, […] reported in Table 2.

[2] = biological target: T2, human TNFR2 ECD protein (Homo sapiens, UniProt P20333); experiment: SPR off-target binding (selectivity) to human TNFR2 ECD
T2 construct: HRV 3C protease cleavage site (C); 6His (C, cleaved yes); made in house; host or cells: Sf21 insect cells (baculovirus), secreted
T2 sequence (P20333 23-257): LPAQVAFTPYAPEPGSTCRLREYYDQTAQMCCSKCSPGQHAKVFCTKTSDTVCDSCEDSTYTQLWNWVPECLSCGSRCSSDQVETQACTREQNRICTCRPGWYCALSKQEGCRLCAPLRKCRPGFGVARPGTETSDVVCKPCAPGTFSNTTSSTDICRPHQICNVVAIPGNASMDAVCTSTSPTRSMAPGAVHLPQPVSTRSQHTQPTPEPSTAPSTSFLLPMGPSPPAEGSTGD
Method: as §1, §2, §3

[3] = biological target: T3, TNFα-induced NF-κB signal transduction pathway (TNFR1 signaling) in THP-1 cells (Homo sapiens, UniProt P19438); experiment: THP-1 Lucia NF-κB reporter cell assay, inhibition of TNFα-induced NF-κB signaling; type: cell-based; conditions: THP-1 NF-κB Lucia reporter cells, 10 ng/mL TNFα, 16-18 h, secreted luciferase; read-out: THP-1 IC50
T3 sequence (P19438 30-455): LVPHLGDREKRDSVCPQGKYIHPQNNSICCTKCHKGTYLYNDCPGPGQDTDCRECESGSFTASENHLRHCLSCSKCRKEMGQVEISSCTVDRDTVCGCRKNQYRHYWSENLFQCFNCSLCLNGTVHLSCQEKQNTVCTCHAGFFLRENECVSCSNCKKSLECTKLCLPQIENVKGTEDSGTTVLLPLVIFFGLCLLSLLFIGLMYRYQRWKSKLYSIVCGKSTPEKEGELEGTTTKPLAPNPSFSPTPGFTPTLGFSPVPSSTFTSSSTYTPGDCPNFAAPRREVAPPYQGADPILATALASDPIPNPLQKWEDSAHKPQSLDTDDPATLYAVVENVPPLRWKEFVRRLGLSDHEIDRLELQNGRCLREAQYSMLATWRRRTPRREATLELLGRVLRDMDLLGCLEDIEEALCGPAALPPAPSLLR
Method in brief: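 Inhibition of TNFR1-driven NF-κB activation was measured as luminescence of secreted reporter luciferase following overnight (16-18 h) stimulation with 10 ng/mL TNFα.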

Structure (SMILES) | Kd [1] [nM] | Kd [2] [nM] | IC50 [3] [nM] | Kd ([1]; biotinylated human TNFR1 ECD on streptavidin chip, from kon and koff, read-out: SPR hTNFR1 KD) [nM] | Kd ([2]; biotinylated human TNFR2 ECD on streptavidin chip, read-out: SPR hTNFR2 KD) [nM]
CCCC[C@@H]1NC(=O)[C@@H]2CC[C@@H](C2)NC(=O)[C@H]([C@@H](C)c2c[nH]c3c(OC)cccc23)NC(=O)CN(C)C(=O)[C@H](Cc2ccc(OCC(=O)O)cc2)NC(=O)[C@H](Cc2ccc(C(N)=O)cc2)NC(=O)[C@](C)(CO)NC(=O)[C@H](Cc2c[nH]c3c(Cl)cccc23)NC(=O)[C@H](Cc2ccc(OCC(=O)O)cc2)NC(=O)[C@H](CC(N)=O)NC(=O)[C@H]2C[C@H](O)CN2C(=O)[C@H](Cc2c[nH]c3ccccc23)NC(=O)[C@@H]2CC[C@@H](O)CN2C(=O)[C@H](Cc2ccncc2)NC1=O [SEQ ID NO. 3] (cyclo([4Pal][Pip(5R-OH)]W[dHyp]NY(Carboxymethyl)[Trp(7-Cl)][αMeS][Phe(4-CONH2)]Y(Carboxymethyl)[Sar][Trp(βS-Me,7-OMe)][X1][Nle])) | 0.04 | > 1000 | 0.5 |  | 
CCCC[C@@H]1NC(=O)[C@@H]2CC[C@@H](C2)NC(=O)[C@H]([C@@H](C)c2c[nH]c3c(OC)cccc23)NC(=O)CN(C)C(=O)[C@H](Cc2ccc(O)cc2)NC(=O)[C@H](Cc2ccc(C(=O)O)cc2)NC(=O)[C@](C)(CO)NC(=O)[C@H](Cc2c[nH]c3c(Cl)cccc23)NC(=O)[C@H](Cc2ccncc2)NC(=O)[C@H](CC(N)=O)NC(=O)[C@H](CCC(=O)O)N(C)C(=O)[C@H](Cc2c[nH]c3ccccc23)NC(=O)[C@@H]2CNCCN2C(=O)[C@H](Cc2ccncc2)NC1=O [SEQ ID NO. 5] (cyclo([4Pal][Trp(7-Cl)][αMeS][Phe(4-COOH)]Y[Sar][Trp(βS-Me,7-OMe)][X1][Nle][4Pal][Pip(4-aza)]W[NMeE]N)) |  |  | 1.2 | 0.1 | > 1000
CCCC[C@@H]1NC(=O)CSC[C@@H](C(N)=O)NC(=O)[C@H]([C@@H](C)c2c[nH]c3c(OC)cccc23)NC(=O)CN(C)C(=O)[C@H](Cc2ccc(O)cc2)NC(=O)[C@H](Cc2ccc(C(=O)O)cc2)NC(=O)[C@](C)(CO)NC(=O)[C@H](Cc2c[nH]c3c(Cl)cccc23)NC(=O)[C@H](Cc2ccncc2)NC(=O)[C@H](CC(N)=O)NC(=O)[C@H](CCC(=O)O)N(C)C(=O)[C@H](Cc2c[nH]c3ncccc23)NC(=O)[C@@H]2CNCCN2C(=O)[C@H](CC23CC(C2)C3)NC1=O [SEQ ID NO. 33] ({CH2CO}-[Nle][Ala(1-bicyclo(1.1.1)pentyl)][Pip(4-aza)][Trp(7-aza)][NMeE]N[4Pal][Trp(7-Cl)][αMeS][Phe(4-COOH)]Y[Sar][Trp(βS-Me,7-OMe)]C-NH2; thioether N-14) | 0.3 | > 1000 | 6.8 |  | 
COc1cccc2c([C@H](C)[C@@H]3NC(=O)CN(C)C(=O)[C@H](Cc4ccc(O)cc4)NC(=O)[C@H](Cc4ccc(C(=O)O)cc4)NC(=O)[C@](C)(CO)NC(=O)[C@H](Cc4c[nH]c5c(Cl)cccc45)NC(=O)[C@H](Cc4ccncc4)NC(=O)[C@H](CC(N)=O)NC(=O)[C@H](CCC(=O)O)N(C)C(=O)[C@H](Cc4c[nH]c5ccccc45)NC(=O)[C@@H]4CNCCN4C(=O)[C@H](Cc4ccncc4)NC(=O)[C@H](CCCCNC(=N)N)NC(=O)[C@@H]4CC[C@@H](C4)NC3=O)c[nH]c12 [SEQ ID NO. 35] (cyclo([4Pal][Trp(7-Cl)][αMeS][Phe(4-COOH)]Y[Sar][Trp(βS-Me,7-OMe)][X1][hArg][4Pal][Pip(4-aza)]W[NMeE]N)) | 0.11 | > 1000 | 1 |  | 
